Key:
VEGFR-2 Protein Kinase = target: T1, VEGFR-2 Protein Kinase (Homo sapiens, UniProt P35968); assay: VEGFR-2 inhibitory activity (HTScan VEGF Receptor-2 Kinase Assay Kit, ELISA); assay type: biochemical; details: mean of three individual experiments
T1 construct: It includes active VEGFR-2 kinase; purchased HTScan VEGF Receptor-2 Kinase Assay Kit
Protocol: 2.2. VEGFR-2 Inhibitory activity
VEGFR-2 ELISA (Enzyme-Linked Immunosorbent Assay) kits (HTScan® VEGF Receptor-2 […]
phospho-tyrosine antibody) for detection of the phosphorylated form of the substrate peptide).
On a 96-well plate, a particular VEGFR-2 antibody was seeded and 100 μL of the normal solution or the tested compound tested was applied, incubated at room temperature for 2.5 h and washed. Then, 100 μL of the prepared biotin antibody was added, incubated for an additional 1 h at room temperature and washed. Following, 100 μL of streptavidin solution was added at room temperature, incubated for 45 minutes and then, 100 μL of TMB Substrate solution was applied and incubated at room temperature for 30 minutes. Finally, 50 μL stop solution was added and the absorption was measured at 450 nm instantly. The standard curve, the X -axis concentrations, and the Y-axis absorbance were drawn. […]

MCF-7 cells = assay: Anti-proliferative activity, SRB assay, MCF-7; assay type: cell-based, human; details: for IC50: Homo sapiens, SRB assay, 72 h exposure, mean ± SD of three separate experiments; for MCF-7 SI (selectivity index): ratio of IC50 for normal cells (WI-38) to IC50 for MCF-7
From the text: (§1) Several of these derivatives were reported as acting as competitive inhibitors of different tyrosine kinases, with potent cytotoxic activity against various cell lines[58]^,[59]. […] Thus, in this study a novel series of benzoxazole-benzamide conjugates was initially evaluated for their potential anti-cancer activity against colon cancer cell line (HCT-116), breast cancer cell line (MCF-7) and normal human fibroblasts (WI-38), using the Sulforhodamine B colorimetric (SRB) assay.
(§2) 2.1. Anti-proliferative activity against HCT-116 and MCF-7 human cancer cells lines.
(§3) The sulforhodamine B (SRB) assays were performed according to Skehan et al..
(§4) Briefly, exponentially growing cells were trypsinized, counted and seeded at the appropriate densities (5000 cells/100 μL/ well) into 96-well microtiter plates. Cells were incubated in a humidified atmosphere at 37 °C for 24 h. Then, the cells were exposed to the tested compounds at the desired concentrations (0.01, 0.1, 1, 10, and 100 μM) or to 1% dimethyl sulfoxide (DMSO) for 72 h. At the end of the treatment period, the media were removed, and the cells were fixed with 10% trichloroacetic acid at 4 °C for 1 h. Following, the cells were washed with tap water four times and incubated with SRB 0.4% for 30 min. Excess dye was removed by washing repeatedly with 1% (vol/vol) acetic acid. The protein-bound dye was dissolved in 10 mM Tris base solution for (optical density) OD determination at 510 nm using a Spectra Max plus Microplate Reader (Molecular Devices, CA). Cell viability was expressed relative to the untreated control cells. […]

WI-38 cells = assay: Cytotoxicity against normal fibroblasts, SRB assay, WI-38; assay type: cell-based; details: normal human fibroblasts, 72 h, mean ± SD of three separate experiments
From the text: as §1, §2, §3, §4

HCT-116 cells = assay: Anti-proliferative activity, SRB assay, HCT-116; assay type: cell-based, human; details: for IC50: Homo sapiens, SRB assay, 72 h exposure, mean ± SD of three separate experiments; for HCT-116 SI (selectivity index): ratio of IC50 for normal cells (WI-38) to IC50 for HCT-116
From the text: as §1, §2, §3, §4

T1 sequence (P35968 20-1356): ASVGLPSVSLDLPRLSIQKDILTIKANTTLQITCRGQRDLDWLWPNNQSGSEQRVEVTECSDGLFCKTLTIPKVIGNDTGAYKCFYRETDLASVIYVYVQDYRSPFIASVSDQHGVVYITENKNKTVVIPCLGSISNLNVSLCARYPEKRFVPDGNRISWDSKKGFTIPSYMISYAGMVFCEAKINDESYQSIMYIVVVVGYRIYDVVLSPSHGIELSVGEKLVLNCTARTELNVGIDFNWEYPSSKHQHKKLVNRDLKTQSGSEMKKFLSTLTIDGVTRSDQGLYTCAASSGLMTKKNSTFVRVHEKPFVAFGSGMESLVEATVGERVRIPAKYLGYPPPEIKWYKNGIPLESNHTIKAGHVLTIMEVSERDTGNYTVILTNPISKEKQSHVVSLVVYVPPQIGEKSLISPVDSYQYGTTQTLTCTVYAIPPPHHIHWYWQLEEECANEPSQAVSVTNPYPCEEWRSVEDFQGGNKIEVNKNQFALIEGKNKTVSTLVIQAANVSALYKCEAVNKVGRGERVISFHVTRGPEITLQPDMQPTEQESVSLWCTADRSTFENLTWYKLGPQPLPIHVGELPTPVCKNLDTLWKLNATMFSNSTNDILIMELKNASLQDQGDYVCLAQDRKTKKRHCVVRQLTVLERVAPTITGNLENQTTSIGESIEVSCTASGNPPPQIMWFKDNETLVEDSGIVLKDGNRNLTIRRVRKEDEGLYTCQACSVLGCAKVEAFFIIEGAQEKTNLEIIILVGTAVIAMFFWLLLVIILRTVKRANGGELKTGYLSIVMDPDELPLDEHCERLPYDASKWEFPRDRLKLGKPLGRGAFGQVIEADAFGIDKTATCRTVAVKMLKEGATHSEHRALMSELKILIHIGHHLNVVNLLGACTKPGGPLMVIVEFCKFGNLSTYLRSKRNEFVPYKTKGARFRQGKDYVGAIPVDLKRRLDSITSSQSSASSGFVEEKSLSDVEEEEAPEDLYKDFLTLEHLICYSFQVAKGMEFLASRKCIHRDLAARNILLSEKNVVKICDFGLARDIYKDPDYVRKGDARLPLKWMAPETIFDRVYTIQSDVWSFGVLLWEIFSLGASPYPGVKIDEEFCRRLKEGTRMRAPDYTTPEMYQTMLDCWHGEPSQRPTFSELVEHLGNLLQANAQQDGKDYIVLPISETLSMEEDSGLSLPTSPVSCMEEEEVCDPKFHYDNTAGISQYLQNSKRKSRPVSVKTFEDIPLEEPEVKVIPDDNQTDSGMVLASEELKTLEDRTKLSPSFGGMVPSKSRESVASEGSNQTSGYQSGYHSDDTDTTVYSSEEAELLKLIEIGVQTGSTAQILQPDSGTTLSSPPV

| Compound | melting point [°C] | IC50 (VEGFR-2 Protein Kinase) [µM] | IC50 (MCF-7 cells; MCF7, 72 h) [µM] | MCF-7 SI (selectivity index) (MCF-7 cells) | IC50 (WI-38 cells) [µM] | IC50 (HCT-116 cells; HCT-116, 72 h) [µM] | HCT-116 SI (selectivity index) (HCT-116 cells) | IC50 (MCF-7 cells; MCF7) [µM] | IC50 (HCT-116 cells; HCT-116) [µM] |
| --- | --- | --- | --- | --- | --- | --- | --- | --- | --- |
| O=C(CSc1nc2cc(Cl)ccc2o1)Nc1ccc(C(=O)NC2CCCCC2)cc1 [Compound 9] | 260 to 262 | 0.649 ± 0.008 | 12.3 ± 0.008 | 6.0 | 74.6 ± 0.53 | 17.1 ± 0.008 | 4.4 | – | – |
| CNC(=O)c1cc(Oc2ccc(NC(=O)Nc3ccc(Cl)c(C(F)(F)F)c3)cc2)ccn1 [Sorafenib, reference compound] | – | – | – | – | – | – | – | 10.5 ± 0.014 | 11.6 ± 0.012 |
| O=C(CSc1nc2cc(Cl)ccc2o1)Nc1ccc(C(=O)Nc2ccccc2)cc1 [Compound 10] | 245 to 247 | 0.704 ± 0.009 | 16.1 ± 0.011 | 7.8 | 125.5 ± 0.72 | 16.7 ± 0.012 | 7.5 | – | – |
| O=C(CSc1nc2ccccc2o1)Nc1ccc(C(=O)Nc2ccc(Cl)cc2)cc1 [Compound 3] | 238 to 240 | – | 22.7 ± 0.008 | 2.6 | 59.3 ± 0.45 | 24.2 ± 0.019 | 2.4 | – | – |
| O=C(CSc1nc2cc(Cl)ccc2o1)Nc1ccc(C(=O)NNC(=O)c2ccccc2)cc1 [Compound 15] | 277 to 279 | 0.597 ± 0.007 | 15.3 ± 0.01 | 8.6 | 131.5 ± 0.8 | 12.9 ± 0.014 | 10.2 | – | – |
| O=C(CSc1nc2ccccc2o1)Nc1ccc(C(=O)Nc2ccccc2)cc1 [Compound 2] | 250 to 252 | – | 11.7 ± 0.014 | 4.8 | 56.7 ± 0.36 | 18.5 ± 0.014 | 3.0 | – | – |
| Cc1ccc2oc(SCC(=O)Nc3ccc(C(=O)Nc4ccccc4)cc3)nc2c1 [Compound 6] | 240 to 242 | – | 19.1 ± 0.006 | 6.5 | 124.6 ± 0.7 | 30.7 ± 0.011 | 4.0 | – | – |
| COc1ccc(NC(=O)c2ccc(NC(=O)CSc3nc4cc(Cl)ccc4o3)cc2)cc1 [Compound 12] | 266 to 268 | 0.385 ± 0.005 | 9.4 ± 0.016 | 13.4 | 126.2 ± 0.75 | 10.4 ± 0.01 | 12.1 | – | – |
| Cc1ccc2oc(SCC(=O)Nc3ccc(C(=O)Nc4ccc(Cl)cc4)cc3)nc2c1 [Compound 7] | 265 to 267 | – | 24 ± 0.011 | 5.3 | 128.2 ± 0.75 | 32 ± 0.002 | 4.0 | – | – |
| O=C(CSc1nc2ccccc2o1)Nc1ccc(C(=O)NNC(=O)c2ccccc2)cc1 [Compound 13] | 270 to 272 | – | 9 ± 0.005 | 10.1 | 91.3 ± 0.6 | 9.1 ± 0.005 | 10.0 | – | – |
| Cc1ccc2oc(SCC(=O)Nc3ccc(C(=O)NNC(=O)c4ccccc4)cc3)nc2c1 [Compound 14] | 250 to 252 | – | 9.5 ± 0.009 | 10.1 | 96.5 ± 0.65 | 9.7 ± 0.013 | 9.9 | – | – |
| COc1ccc(NC(=O)c2ccc(NC(=O)CSc3nc4cc(C)ccc4o3)cc2)cc1 [Compound 8] | 258 to 260 | – | 22.3 ± 0.004 | 6.0 | 135.4 ± 0.85 | 28.8 ± 0.01 | 4.7 | – | – |
| Cc1ccc2oc(SCC(=O)Nc3ccc(C(=O)NC4CCCCC4)cc3)nc2c1 [Compound 5] | 256 to 258 | – | 12.4 ± 0.007 | 6.9 | 85.4 ± 0.55 | 20.9 ± 0.025 | 4.0 | – | – |
| COc1ccc(NC(=O)c2ccc(NC(=O)CSc3nc4ccccc4o3)cc2)cc1 [Compound 4] | 260 to 262 | – | 23.6 ± 0.015 | 2.2 | 51.5 ± 0.4 | 23.2 ± 0.012 | 2.2 | – | – |

— article PMC9176662, “Design, synthesis, molecular modeling and biological evaluation of novel Benzoxazole-Benzamide conjugates via a 2-Thioacetamido linker as potential anti-proliferative agents, VEGFR-2 inhibitors and apoptotic inducers” (Journal of Enzyme Inhibition and Medicinal Chemistry, 2022)
